The source of these data is ChEMBL document CHEMBL1201862, “PubChem BioAssay data set” (2004).

Among the test systems are KM12; HOP-92; SR; HOP-62; SNB-19; M14; SK-MEL-5; NCI/ADR-RES; SK-OV-3; RPMI-8226; MOLT-4; RXF 393; HCT-15; NCI-H226; SF-539; Malme-3M; OVCAR-8; OVCAR-5; Hs-578T; SW-620.
Holding throughout (test): inhibition of tumour cell growth, NCI panel, 48 h

Each structure is given as a SMILES string.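 Following 48 hours of exposure in 96-well plates, responses at five concentrations were used to interpolate endpoints linearly. GI50: concentration for 50% inhibition of growth.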 Active and inactive are the calls of the source. Rule as the data show it: active = GI50 up to about 1.1 µM and inactive = higher.

In the case of `CSc1nc(=O)c(C#N)c(-c2ccccc2)n1C1OC(COC(C)=O)C(OC(C)=O)C(OC(C)=O)C1OC(C)=O` (stereo not given), the GI50 with KM12 is > 100 µM (inactive); in the experiment on HOP-92, 46.9 µM (inactive); in the experiment with SR, > 100 µM (inactive); in the experiment with HOP-62 it was > 100 µM (inactive); in the experiment with SNB-19, > 100 µM (inactive); in the experiment with M14 it was > 100 µM (inactive). Besides, the GI50 with SK-MEL-5 was 81.7 µM (inactive); in the experiment on NCI/ADR-RES it was > 100 µM (inactive); in the experiment on SK-OV-3 it was > 100 µM (inactive); in the experiment on RPMI-8226, > 100 µM (inactive); in the experiment with MOLT-4 it was > 100 µM (inactive); with RXF 393 it was 94.4 µM (inactive). Also, the GI50 with HCT-15 is over 100 µM; in the experiment on NCI-H226 it was > 100 µM (inactive); in the experiment on SF-539, > 100 µM (inactive); with Malme-3M, 69.3 µM (inactive); in the experiment on OVCAR-8, 60.5 µM (inactive); in the experiment on OVCAR-5, > 100 µM (inactive). The results for the GI50 with Hs-578T and with SW-620 were 39.8 µM (inactive) and > 100 µM (inactive), respectively.

For `O=[N+]([O-])c1ccc(-c2cc(O)c3nc4ccccc4n3c2)cc1`, the GI50 in the experiment with KM12 was > 100 µM (inactive); in the experiment on HOP-92 it was > 65.9 µM (inactive); in the experiment on SR it was > 100 µM (inactive); in the experiment with HOP-62 it was 28.6 µM (inactive); in the experiment with SNB-19 it was > 53.7 µM (inactive); in the experiment on M14, > 100 µM (inactive). Also, the GI50 was > 100 µM (inactive) with SK-MEL-5; > 100 µM (inactive) in the experiment on NCI/ADR-RES; 22.8 µM (inactive) with SK-OV-3; > 100 µM (inactive) with RPMI-8226; > 100 µM (inactive) in the experiment on MOLT-4; > 100 µM (inactive) in the experiment with RXF 393. In addition, the GI50 with HCT-15 is over 100 µM; in the experiment on NCI-H226, > 100 µM (inactive); with SF-539, > 100 µM (inactive); in the experiment with Malme-3M, > 100 µM (inactive); in the experiment on OVCAR-8, 60.1 µM (inactive); in the experiment on OVCAR-5 it was > 100 µM (inactive). Also, the GI50 with Hs-578T and in the experiment with SW-620 was > 100 µM (inactive) each time.

As for `CCCN(CCC)C(=S)Sc1nc(C)nc(N2CCN(c3nc(C)nc(SC(=S)N(CCC)CCC)c3[N+](=O)[O-])CC2)c1[N+](=O)[O-]`, the GI50 is 14.2 µM (inactive) in the experiment with KM12; 15.8 µM (inactive) in the experiment with HOP-92; 1.07 µM (active) with SR; 29.4 µM (inactive) in the experiment on HOP-62; 22.6 µM (inactive) with SNB-19; 15.2 µM (inactive) in the experiment on M14. Besides, the GI50 is 3.16 µM (inactive) with SK-MEL-5; 41.5 µM (inactive) with NCI/ADR-RES; 56.4 µM (inactive) in the experiment with SK-OV-3; 0.386 µM (active) in the experiment on RPMI-8226; 3.23 µM (inactive) in the experiment on MOLT-4; 4.19 µM (inactive) in the experiment on RXF 393. In addition, the GI50 was 9.4 µM with HCT-15; 21.8 µM (inactive) with NCI-H226; 26.8 µM (inactive) in the experiment with SF-539; 18.8 µM (inactive) in the experiment on Malme-3M; 5.5 µM (inactive) in the experiment on OVCAR-8; 23.4 µM (inactive) in the experiment with OVCAR-5. In addition, the GI50 in the experiment on Hs-578T is > 63.7 µM (inactive); in the experiment on SW-620 it was 3.53 µM (inactive).

For the compound `CN(C)CC1CN/C(=N\C(=O)Nc2ccccc2)O1` (stereo not given), the GI50 in the experiment on KM12, in the experiment with HOP-92, in the experiment on SR, in the experiment with HOP-62, in the experiment on SNB-19 and in the experiment with M14 was > 100 µM (inactive) in each case. In addition, the GI50 in the experiment with SK-MEL-5, in the experiment with NCI/ADR-RES, in the experiment with SK-OV-3, with RPMI-8226, with MOLT-4 and in the experiment on RXF 393 was > 100 µM (inactive) each time. Besides, the GI50 in the experiment with HCT-15 is over 100 µM; in the experiment on NCI-H226, > 100 µM (inactive); in the experiment on SF-539, > 100 µM (inactive); in the experiment with Malme-3M, > 100 µM (inactive); with OVCAR-8 it was > 100 µM (inactive); with OVCAR-5 it was > 100 µM (inactive). The GI50 in the experiment on Hs-578T and in the experiment with SW-620 was > 100 µM (inactive) throughout.

Regarding `CC(=O)/N=C1\C=C(NC(C)=O)C(=O)c2ccccc21`, the GI50 in the experiment on KM12 is 5.41 µM (inactive); in the experiment with HOP-92, 1.45 µM (inactive); in the experiment with SR, 1.52 µM (inactive); with HOP-62, 18.5 µM (inactive); with SNB-19 it was 3.03 µM (inactive); in the experiment on M14, 1.73 µM (inactive). The GI50 with SK-MEL-5 was 1.64 µM (inactive); in the experiment with NCI/ADR-RES, 2.51 µM (inactive); in the experiment with SK-OV-3, 6.79 µM (inactive); in the experiment with RPMI-8226 it was 1.39 µM (inactive); in the experiment on MOLT-4, 1.98 µM (inactive); in the experiment on RXF 393, 2.21 µM (inactive). Also, the GI50 was 1.89 µM in the experiment on HCT-15; 7.96 µM (inactive) in the experiment with NCI-H226; 2.37 µM (inactive) in the experiment on SF-539; 1.93 µM (inactive) in the experiment with Malme-3M; 2.21 µM (inactive) in the experiment on OVCAR-8; 2.13 µM (inactive) in the experiment on OVCAR-5. The GI50 in the experiment with Hs-578T is 6.28 µM (inactive); with SW-620 it was 1.93 µM (inactive).

On to `FC(F)(F)c1ccc2c(c1)nc(Cc1ccccc1)n2C[C@@H]1CCCN2CCCCC12` (stereo not given in full), for which the GI50 is 15.8 µM (inactive) in the experiment on KM12; 8.85 µM (inactive) in the experiment with HOP-92; 10.1 µM (inactive) with SR; 14.6 µM (inactive) in the experiment with HOP-62; 14.8 µM (inactive) with SNB-19; 10.6 µM (inactive) in the experiment with M14. Moreover, the GI50 in the experiment with SK-MEL-5 is 14.4 µM (inactive); in the experiment with NCI/ADR-RES, 15.1 µM (inactive); in the experiment on SK-OV-3, 17.5 µM (inactive); in the experiment on RPMI-8226, 17.1 µM (inactive); in the experiment on MOLT-4, 12.9 µM (inactive); in the experiment on RXF 393, 8.55 µM (inactive). Moreover, the GI50 in the experiment on HCT-15 is 14.6 µM; with NCI-H226, 19.2 µM (inactive); with SF-539, 18.8 µM (inactive); in the experiment on Malme-3M it was 15.2 µM (inactive); in the experiment on OVCAR-8, 15.3 µM (inactive); with OVCAR-5, 16.1 µM (inactive). The GI50 in the experiment on Hs-578T was 18.5 µM (inactive); in the experiment on SW-620 it was 21.7 µM (inactive).

On to `O=C(Nc1ccn(C2CC(I)C(COC(c3ccccc3)(c3ccccc3)c3ccccc3)O2)c(=O)n1)c1ccccc1` (stereo not given), for which the GI50 was 7.46 µM (inactive) with KM12; 5.14 µM (inactive) with HOP-92; 0.6 µM (active) with SR; 14 µM (inactive) with HOP-62; 12.9 µM (inactive) with SNB-19; 10.8 µM (inactive) with M14. Besides, the GI50 in the experiment with SK-MEL-5 is 9.53 µM (inactive); in the experiment with NCI/ADR-RES it was 9.75 µM (inactive); with SK-OV-3 it was 15.5 µM (inactive); with RPMI-8226 it was 7.26 µM (inactive); with MOLT-4, 4.13 µM (inactive); in the experiment with RXF 393, 8.59 µM (inactive). In addition, the GI50 with HCT-15 was 8.73 µM; in the experiment with NCI-H226, 8.55 µM (inactive); in the experiment with SF-539, 12.4 µM (inactive); in the experiment with Malme-3M, 7.78 µM (inactive); with OVCAR-8, 9.25 µM (inactive); in the experiment with OVCAR-5, > 21.5 µM (inactive). The GI50 with Hs-578T was 3.03 µM (inactive); with SW-620 it was 14 µM (inactive).

On to `C/C(=N/NC(=S)Nc1ccccc1Cl)c1cccc(/C(C)=N\NC(=S)Nc2ccccc2Cl)n1`, for which the GI50 in the experiment on KM12 is 7.24 µM (inactive); in the experiment with HOP-92, > 100 µM (inactive); in the experiment with SR, 5.66 µM (inactive); in the experiment with HOP-62 it was > 100 µM (inactive); with SNB-19, 82.4 µM (inactive); in the experiment on M14, 22 µM (inactive). For the same compound, the GI50 in the experiment on SK-MEL-5 is 12.4 µM (inactive); with NCI/ADR-RES it was > 100 µM (inactive); with SK-OV-3, > 100 µM (inactive); with RPMI-8226 it was > 100 µM (inactive); in the experiment with MOLT-4, 23.6 µM (inactive); in the experiment on RXF 393, > 100 µM (inactive). The GI50 with HCT-15 was 15 µM; with NCI-H226 it was > 100 µM (inactive); with SF-539 it was 16.6 µM (inactive); in the experiment with Malme-3M, 35.8 µM (inactive); with OVCAR-8, 11.3 µM (inactive); in the experiment on OVCAR-5, > 100 µM (inactive). Also, the values for the GI50 in the experiment with Hs-578T and in the experiment with SW-620 were > 100 µM (inactive) and 11.1 µM (inactive), respectively.

Regarding `CCN(CC)CCn1ncc2ccc3c(c(=O)c4cccnc4n3CCN(CC)CC)c21`, the GI50 in the experiment with KM12 was 0.603 µM (active); in the experiment on HOP-92, 1.38 µM (inactive); in the experiment with SR, 0.284 µM (active); in the experiment on HOP-62 it was 0.867 µM (active); with SNB-19, 1.97 µM (inactive); in the experiment with M14, 1.41 µM (inactive). Moreover, the GI50 was 1.09 µM (active) in the experiment with SK-MEL-5; 1.45 µM (inactive) with NCI/ADR-RES; 1.16 µM (inactive) in the experiment on SK-OV-3; 0.931 µM (active) in the experiment on RPMI-8226; 0.344 µM (active) in the experiment on MOLT-4; 0.67 µM (active) in the experiment on RXF 393. Besides, the GI50 is 0.743 µM with HCT-15; 1.7 µM (inactive) in the experiment with NCI-H226; 0.589 µM (active) with SF-539; 1.75 µM (inactive) with Malme-3M; 0.561 µM (active) in the experiment on OVCAR-8; 1.09 µM (active) in the experiment on OVCAR-5. Further, the figures for the GI50 with Hs-578T and with SW-620 were 2.17 µM (inactive) and 0.519 µM (active), respectively.

With `CCOC(=O)CCC(C(=O)OCC)n1nc2ccc(Nc3c(C)[n+]([O-])c4cc(F)c(OCC)cc4[n+]3[O-])cc2n1` (stereo not given), the GI50 was > 100 µM (inactive) with KM12; 21.4 µM (inactive) in the experiment with HOP-92; > 100 µM (inactive) with SR; 17.5 µM (inactive) with HOP-62; 31.9 µM (inactive) in the experiment with SNB-19; > 100 µM (inactive) with M14. Moreover, the GI50 is 82.8 µM (inactive) with SK-MEL-5; 62.1 µM (inactive) with NCI/ADR-RES; 31.9 µM (inactive) with SK-OV-3; > 100 µM (inactive) in the experiment on RPMI-8226; > 100 µM (inactive) in the experiment with MOLT-4; 11.6 µM (inactive) in the experiment on RXF 393. In addition, the GI50 with HCT-15 is over 100 µM; in the experiment with NCI-H226 it was 36.7 µM (inactive); with SF-539, 22.5 µM (inactive); in the experiment with Malme-3M it was > 100 µM (inactive); with OVCAR-8, 30 µM (inactive); in the experiment with OVCAR-5, > 100 µM (inactive). For the same compound, the values for the GI50 with Hs-578T and in the experiment on SW-620 were 26.2 µM (inactive) and > 100 µM (inactive), respectively.
